Experimental data as given in patent US10479780B2, “Aminopyrazole derivatives” (Chugai Seiyaku Kabushiki Kaisha, priority 2015, dated 2019).
Read-outs that look alike come from different tables or passages of the source.

Legend:
Type in all cases: biochemical
[1] = target: T1, human Yes1 enzyme (Homo sapiens, UniProt P07947); test: Yes1 enzyme inhibitory activity (time-resolved fluorometry, biotinylated peptide phosphorylation); settings: read-out: YES_IC50
T1 construct: made in house
How it was run: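 Inhibition was expressed against a compound-free control to give IC50, using TR-FRET read-out (Eu-cryptate anti-pTyr antibody, streptavidin-XL665).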

[2] = target: T2, human Src enzyme (Homo sapiens, UniProt P12931); test: Src enzyme inhibitory activity (time-resolved fluorometry, biotinylated peptide phosphorylation); settings: read-out: SRC_IC50
T2 construct: purchased Carna Biosciences, Inc. 08-173
T2 sequence (P12931 whole entry): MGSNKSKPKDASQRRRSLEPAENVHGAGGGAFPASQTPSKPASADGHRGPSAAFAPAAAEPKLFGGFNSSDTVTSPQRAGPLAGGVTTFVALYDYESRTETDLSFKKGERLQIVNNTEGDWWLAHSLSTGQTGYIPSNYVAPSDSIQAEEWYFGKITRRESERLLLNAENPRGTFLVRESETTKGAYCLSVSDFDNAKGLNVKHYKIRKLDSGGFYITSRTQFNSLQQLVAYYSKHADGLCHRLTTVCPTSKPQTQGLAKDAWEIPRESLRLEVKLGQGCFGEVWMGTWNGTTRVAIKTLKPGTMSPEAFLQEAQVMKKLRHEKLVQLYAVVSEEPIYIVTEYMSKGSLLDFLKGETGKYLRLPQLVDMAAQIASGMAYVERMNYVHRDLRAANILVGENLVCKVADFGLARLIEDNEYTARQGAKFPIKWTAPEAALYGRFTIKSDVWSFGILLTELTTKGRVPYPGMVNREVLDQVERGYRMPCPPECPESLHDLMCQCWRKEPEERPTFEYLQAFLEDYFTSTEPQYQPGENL
How it was run: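 Compounds were tested for blocking tyrosine phosphorylation of a biotinylated peptide substrate by recombinant human Src. Phosphorylated product was quantified by time-resolved fluorometry using europium cryptate and XL665 conjugates, and IC50 was calculated against the compound-free control.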

[3] = target: T3, human Lck enzyme (Homo sapiens, UniProt P06239); test: Lck enzyme inhibitory activity (time-resolved fluorometry, biotinylated peptide phosphorylation); settings: read-out: LCK_IC50
T3 construct: purchased Carna Biosciences, Inc. 08-170
T3 sequence (P06239 whole entry): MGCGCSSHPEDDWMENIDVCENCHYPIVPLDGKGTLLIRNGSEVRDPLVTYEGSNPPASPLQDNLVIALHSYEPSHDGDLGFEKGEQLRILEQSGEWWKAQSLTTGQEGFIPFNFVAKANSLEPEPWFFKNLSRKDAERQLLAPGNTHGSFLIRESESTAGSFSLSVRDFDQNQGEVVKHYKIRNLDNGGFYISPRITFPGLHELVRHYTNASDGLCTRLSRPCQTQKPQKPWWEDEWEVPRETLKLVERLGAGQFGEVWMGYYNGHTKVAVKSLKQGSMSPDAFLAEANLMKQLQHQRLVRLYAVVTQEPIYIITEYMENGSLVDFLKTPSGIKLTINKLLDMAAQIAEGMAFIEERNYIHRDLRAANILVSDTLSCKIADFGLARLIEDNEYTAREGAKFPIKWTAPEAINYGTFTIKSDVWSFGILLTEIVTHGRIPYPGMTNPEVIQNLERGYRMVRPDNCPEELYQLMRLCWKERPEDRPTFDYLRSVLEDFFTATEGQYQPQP
How it was run: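 Readout pairs a europium cryptate-labelled anti-phosphotyrosine antibody with XL665-streptavidin, measured by time-resolved fluorescence. IC50 derived from percent inhibition against untreated controls.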

[4] = biotinylated peptide phosphorylation

T1 sequence (P07947 whole entry): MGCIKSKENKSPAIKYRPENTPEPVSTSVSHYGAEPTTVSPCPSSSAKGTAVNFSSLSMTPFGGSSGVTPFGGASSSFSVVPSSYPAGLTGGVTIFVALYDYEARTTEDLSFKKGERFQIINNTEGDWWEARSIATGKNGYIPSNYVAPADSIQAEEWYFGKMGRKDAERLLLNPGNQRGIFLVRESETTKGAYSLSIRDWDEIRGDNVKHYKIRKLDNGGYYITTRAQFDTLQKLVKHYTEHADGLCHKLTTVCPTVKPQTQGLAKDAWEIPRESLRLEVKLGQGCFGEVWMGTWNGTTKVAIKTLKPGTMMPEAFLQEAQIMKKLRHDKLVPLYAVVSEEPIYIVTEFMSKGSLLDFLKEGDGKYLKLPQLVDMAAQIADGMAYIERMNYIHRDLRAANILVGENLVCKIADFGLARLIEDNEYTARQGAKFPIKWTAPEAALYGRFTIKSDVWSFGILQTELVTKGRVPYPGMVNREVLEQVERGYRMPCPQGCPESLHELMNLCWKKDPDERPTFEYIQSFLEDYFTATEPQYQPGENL

SMILES: Cc1cc(Oc2ccccc2F)ncc1-n1ncc(C(=O)c2cc3cc(OC(F)F)c(C4CCN(S(=O)(=O)C5CC5)CC4)cc3[nH]2)c1N [Example 4-17-010, [5-amino-1-[6-(2-fluorophenoxy)-4-methylpyridin-3-yl]pyrazol-4-yl]-[6-(1-cyclopropylsulfonylpiperidin-4-yl)-5-(difluoromethoxy)-1H-indol-2-yl]methanone]
- IC50 [1, 4]: 2 nM
- IC50 [2, 4]: 99 nM
- IC50 [3, 4]: 45 nM

SMILES: Cc1cc(Oc2c(F)cccc2F)ncc1-n1ncc(C(=O)c2cc3cc(F)c(N4CCOCC4)cc3[nH]2)c1N [Example 5-1-100, [5-amino-1-[6-(2,6-difluorophenoxy)-4-methylpyridin-3-yl]pyrazol-4-yl]-(5-fluoro-6-morpholin-4-yl-1H-indol-2-yl)methanone]
- IC50 [1]: 1.6 nM
- IC50 [2]: 8.7 nM
- IC50 [3]: 1.3 nM

SMILES: Cc1cc(Oc2ccccc2F)cc(F)c1-n1ncc(C(=O)c2cc3cc(F)c(NS(=O)(=O)C4CC4)cc3[nH]2)c1N [Example 4-7-004, N-[2-[5-amino-1-[2-fluoro-4-(2-fluorophenoxy)-6-methylphenyl]pyrazole-4-carbonyl]-5-fluoro-1H-indol-6-yl]cyclopropanesulfonamide]
- IC50 [1, 4]: 4.8 nM
- IC50 [2, 4]: 220 nM
- IC50 [3, 4]: 40 nM

SMILES: Cc1cc2cc(C(=O)c3cnn(-c4ccc(Oc5ccccc5F)cc4C)c3N)[nH]c2cc1N1C(=O)N[C@@H](Cc2ccccc2)C1=O [Example 5-1-457, (5S)-3-[2-[5-amino-1-[4-(2-fluorophenoxy)-2-methylphenyl]pyrazole-4-carbonyl]-5-methyl-1H-indol-6-yl]-5-benzylimidazolidine-2,4-dione]
- IC50 [1, 4]: 2.3 nM
- IC50 [2, 4]: 78 nM
- IC50 [3, 4]: 19 nM

SMILES: Cc1cc(Oc2c(F)cccc2F)ncc1-n1ncc(C(=O)c2cc3cc(OC4CCN(C(C)C)CC4)c(Br)cc3[nH]2)c1N [Example 5-1-134, [5-amino-1-[6-(2,6-difluorophenoxy)-4-methylpyridin-3-yl]pyrazol-4-yl]-[6-bromo-5-(1-propan-2-ylpiperidin-4-yl)oxy-1H-indol-2-yl] methanone]
- IC50 [1]: 0.37 nM
- IC50 [2]: 4.6 nM
- IC50 [3]: 2.1 nM

SMILES: Cc1cc2cc(C(=O)c3cnn(-c4cnc(Oc5ccccc5F)cc4C)c3N)[nH]c2cc1NS(=O)(=O)C1CCOCC1 [Example 5-1-333, N-[2-[5-amino-1-[6-(2-fluorophenoxy)-4-methylpyridin-3-yl]pyrazole-4-carbonyl]-5-methyl-1H-indol-6-yl]oxane-4-sulfonamide]
- IC50 [1]: 2 nM
- IC50 [2]: 140 nM
- IC50 [3]: 19 nM

SMILES: Cc1cc(-n2ncc(C(=O)c3cc4cc(OC(F)F)c(N5CCOC5=O)cc4[nH]3)c2N)ccc1Oc1ccccc1F [Example 5-1-177, 3-[2-[5-amino-1-[4-(2-fluorophenoxy)-3-methylphenyl]pyrazole-4-carbonyl]-5-(difluoromethoxy)-1H-indol-6-yl]-1,3-oxazolidin-2-one]
- IC50 [1]: 2.4 nM
- IC50 [2]: 340 nM
- IC50 [3]: 82 nM

SMILES: COc1cncc(S(=O)(=O)Nc2cc3[nH]c(C(=O)c4cnn(-c5cnc(Oc6ccccc6F)cc5C)c4N)cc3cc2C)c1 [Example 5-1-484, N-[2-[5-amino-1-[6-(2-fluorophenoxy)-4-methylpyridin-3-yl]pyrazole-4-carbonyl]-5-methyl-1H-indol-6-yl]-5-methoxypyridine-3-sulfonamide]
- IC50 [1, 4]: 6.9 nM
- IC50 [2, 4]: 570 nM
- IC50 [3, 4]: 140 nM

SMILES: CC(C)N1CCC(c2cc3cc(C(=O)c4cnn(-c5ccc(Oc6ccccc6F)cc5F)c4N)[nH]c3cc2F)CC1 [Example 4-2-009, [5-amino-1-[2-fluoro-4-(2-fluorophenoxy)phenyl]pyrazol-4-yl]-[6-fluoro-5-(1-propan-2-ylpiperidin-4-yl)-1H-indol-2-yl]methanone]
- IC50 [1, 4]: 0.81 nM
- IC50 [2, 4]: 5.1 nM
- IC50 [3, 4]: 3.4 nM

SMILES: Cc1cc2cc(C(=O)c3cnn(-c4c(C)cc(Oc5ccccc5F)cc4F)c3N)[nH]c2cc1NS(=O)(=O)CC(=O)N1CCOCC1 [Example 4-10-009, N-[2-[5-amino-1-[2-fluoro-4-(2-fluorophenoxy)-6-methylphenyl]pyrazole-4-carbonyl]-5-methyl-1H-indol-6-yl]-2-morpholin-4-yl-2-oxoethanesulfonamide]
- IC50 [1, 4]: 2.7 nM
- IC50 [2, 4]: 33 nM
- IC50 [3, 4]: 19 nM

SMILES: Cc1cc(Oc2ccccc2F)ncc1-n1ncc(C(=O)c2cc3cc(OCC(F)F)c(NS(=O)(=O)c4cccc(Cl)c4)cc3[nH]2)c1N [Example 5-1-424, N-[2-[5-amino-1-[6-(2-fluorophenoxy)-4-methylpyridin-3-yl]pyrazole-4-carbonyl]-5-(2,2-difluoroethoxy)-1H-indol-6-yl]-3-chlorobenzenesulfonamide]
- IC50 [1, 4]: 5.6 nM
- IC50 [2, 4]: 480 nM
- IC50 [3, 4]: 200 nM

SMILES: Cc1cc(Oc2ccccc2F)ccc1-n1ncc(C(=O)c2cc3cc(OCC(F)F)c(-n4c(C)cc(=O)[nH]c4=O)cc3[nH]2)c1N [Example 4-23-030, 1-[2-[5-amino-1-[4-(2-fluorophenoxy)-2-methylphenyl]pyrazole-4-carbonyl]-5-(2,2-difluoroethoxy)-1H-indol-6-yl]-6-methylpyrimidine-2,4-dione]
- IC50 [1, 4]: 1.4 nM
- IC50 [2, 4]: 6.4 nM
- IC50 [3, 4]: 3.8 nM

SMILES: Cc1cc(Oc2ccccc2F)ccc1-n1ncc(C(=O)c2cc3cc(OC(F)F)c(NS(=O)(=O)CCCF)cc3[nH]2)c1N [Example 4-24-003, N-[2-[5-amino-1-[4-(2-fluorophenoxy)-2-methylphenyl]pyrazole-4-carbonyl]-5-(difluoromethoxy)-1H-indol-6-yl]-3-fluoropropane-1-sulfonamide]
- IC50 [1, 4]: 2.7 nM
- IC50 [2, 4]: 55 nM
- IC50 [3, 4]: 25 nM

SMILES: Cc1cc(-n2ncc(C(=O)c3cc4cc(OC5CCN(C6COC6)CC5)c(Br)cc4[nH]3)c2N)ccc1Oc1ccccc1F [Example 5-1-220, (5-amino-1-(4-(2-fluorophenoxy)-3-methylphenyl)-1H-pyrazol-4-yl)(6-bromo-5-((1-(oxetan-3-yl)piperidin-4-yl)oxy)-1H-indol-2-yl)methanone]
- IC50 [1]: 1.5 nM
- IC50 [2]: 180 nM
- IC50 [3]: 56 nM

SMILES: Nc1c(C(=O)c2cc3cc(F)c(NS(=O)(=O)CCCF)cc3[nH]2)cnn1-c1c(F)cc(Oc2cccc(F)c2F)cc1F [Example 5-1-034, N-[2-[5-amino-1-[4-(2,3-difluorophenoxy)-2,6-difluorophenyl]pyrazole-4-carbonyl]-5-fluoro-1H-indol-6-yl]-3-fluoropropane-1-sulfonamide]
- IC50 [1]: 3.5 nM
- IC50 [2]: 180 nM
- IC50 [3]: 62 nM

SMILES: Cc1cc(Oc2ccccc2F)ccc1-n1ncc(C(=O)c2cc3cc(OCCN4[C@@H]5CC[C@H]4COC5)c(NS(C)(=O)=O)cc3[nH]2)c1N [Example 4-24-039, N-[2-[5-amino-1-[4-(2-fluorophenoxy)-2-methylphenyl]pyrazole-4-carbonyl]-5-[2-[(1S,5R)-3-oxa-8-azabicyclo[3.2.1]octan-8-yl]ethoxy]-1H-indol-6-yl]methanesulfonamide]
- IC50 [1, 4]: 0.46 nM
- IC50 [2, 4]: 8.3 nM
- IC50 [3, 4]: 2.8 nM

SMILES: Cc1cc(-n2ncc(C(=O)c3cc4cc(OC5CCN(C6CS(=O)(=O)C6)CC5)c(-c5cncnc5)cc4[nH]3)c2N)ccc1Oc1ccccc1F [Example 5-1-283, [5-amino-1-[4-(2-fluorophenoxy)-3-methylphenyl]pyrazol-4-yl]-[5-[1-(1,1-dioxothietan-3-yl)piperidin-4-yl]oxy-6-pyrimidin-5-yl-1H-indol-2-yl]methanone]
- IC50 [1]: 2 nM
- IC50 [2]: 270 nM
- IC50 [3]: 32 nM

SMILES: Cc1cc(Oc2ccccc2F)ncc1-n1ncc(C(=O)c2cc3cc(SC(F)F)c(NS(=O)(=O)CCCF)cc3[nH]2)c1N [Example 5-1-339, N-[2-[5-amino-1-[6-(2-fluorophenoxy)-4-methylpyridin-3-yl]pyrazole-4-carbonyl]-5-(difluoromethylsulfanyl)-1H-indol-6-yl]-3-fluoropropane-1-sulfonamide]
- IC50 [1]: 5.7 nM
- IC50 [2]: 540 nM
- IC50 [3]: 74 nM

SMILES: Cc1cc(-n2ncc(C(=O)c3cc4cc(OC5CCN(C6CCCC6)CC5)c(-c5ccccc5C(F)(F)F)cc4[nH]3)c2N)ccc1Oc1ccccc1F [Example 5-1-385, (5-amino-1-(4-(2-fluorophenoxy)-3-methylphenyl)-1H-pyrazol-4-yl)(5-((1-cyclopentylpiperidin-4-yl)oxy)-6-(2-(trifluoromethyl)phenyl)-1H-indol-2-yl)methanone]
- IC50 [1]: 3 nM
- IC50 [2]: 2400 nM
- IC50 [3]: 390 nM

SMILES: Cc1cc(Oc2ccccc2F)ccc1-n1ncc(C(=O)c2cc3cc(OC4CCN(C(C)C)CC4)c(N4CCOC4=O)cc3[nH]2)c1N [Example 5-1-192, 3-[2-[5-amino-1-[4-(2-fluorophenoxy)-2-methylphenyl]pyrazole-4-carbonyl]-5-(1-propan-2-ylpiperidin-4-yl)oxy-1H-indol-6-yl]-1,3-oxazolidin-2-one]
- IC50 [1]: 0.29 nM
- IC50 [2]: 1.1 nM
- IC50 [3]: 0.86 nM

SMILES: Cc1cc(Oc2cc(F)ccc2F)cc(F)c1-n1ncc(C(=O)c2cc3cc(Cl)c(NS(C)(=O)=O)cc3[nH]2)c1N [Example 4-2-081, N-[2-[5-amino-1-[4-(2,5-difluorophenoxy)-2-fluoro-6-methylphenyl]pyrazole-4-carbonyl]-5-chloro-1H-indol-6-yl]methanesulfonamide]
- IC50 [1, 4]: 14 nM
- IC50 [2, 4]: 210 nM
- IC50 [3, 4]: 83 nM

SMILES: Cc1cc(Oc2ccccc2F)ccc1-n1ncc(C(=O)c2cc3cc(N4CCOCC4)c(N4CCN(S(C)(=O)=O)CC4)cc3[nH]2)c1N [Example 5-1-093, [5-amino-1-[4-(2-fluorophenoxy)-2-methylphenyl]pyrazol-4-yl]-[6-(4-methylsulfonylpiperazin-1-yl)-5-morpholin-4-yl-1H-indol-2-yl]methanone]
- IC50 [1]: 1.8 nM
- IC50 [2]: 11 nM
- IC50 [3]: 3.7 nM
